Patent publication US12390437B2, “Itaconic acid derivatives and uses thereof intreating an inflammatory disease or a disease associated with an undesirable immune response” (Sitryx Therapeutics Limited, priority 2019, dated 2025)
Read-outs that look alike come from different tables or passages of the source.

Key:
NQO1 = NQO1 enzyme activation assay as a readout of NRF2 activation in THP-1 cells; type: cell-based; settings: Homo sapiens; for Emax: THP-1, percentage activation at top concentration, normalised to DMF (100%) and vehicle controls; for EC50: differentiated THP-1 cells, LPS, 48 hr
Description: NQO1 Enzyme Activation Assay as a Readout of NRF2 Activation in THP-1 Cellular Background
NAD(P)H dehydrogenase [quinone] […] Induction of this gene is concomitant with the inhibition of proinflammatory cytokine transcription and suppression of the inflammatory response (Kobayashi E. H. et al., 2016). The NQO1 enzyme activation activities of compounds of formula (IW-1) were determined using a cellular based NQO1 activation assay (Abcam). The NQO1 activation assay was run in differentiated THP-1 cells (a human monocyte-like cell line) as described below. All reagents described are from Sigma-Aldrich unless specified otherwise. Compounds were prepared as 10 mM DMSO stocks.
THP-1 cells were expanded as a suspension up to 80% confluence in appropriate growth medium. Cells were harvested, suspended, treated with phorbol 12-myristate 13-acetate (PMA) and plated according to the cell density required for each plate format over a 72 hr period (37° C./5% CO2).
Following 72 hrs of THP-1 cell incubation, cellular medium was removed and replaced with fresh media. Working concentrations of compounds were prepared and pre-incubated for 30 minutes (37° C./5% CO2). Compound treatment was then applied to the PMA treated THP-1 cell plate followed by LPS treatment. A ‘low’ (DMSO vehicle only) control and ‘high’ (designated concentration of dimethyl fumarate) was applied to each plate at the point of compound treatment. Cells were subsequently incubated for a 48 hr period (37° C./5% C02) after which all NQO1 assay reagents were prepared according to the manufacturer's instructions. NQO1 extraction buffer was applied to PBS washed THP-1 cells and incubated on ice for 15 minutes to prepare THP-1 lysates for the NQO1 activity assay. THP-1 lysates were diluted 1:5 with PBS and treated with a 1:1 volume of kit prepared NQO1 Reaction Buffer. Absorbance was subsequently measured kinetically on an appropriate reader over a 6 minute period.
For activation determination, the fold change in response per well was determined by first calculating the average NQO1 activation data for the vehicle control and then dividing the individual well response by the averaged NQO1 response for the vehicle control as shown below: Fold change=(Sample value)/MeanMin Where ‘Min’=vehicle control only
The relative 50% activation concentration (EC50) was determined from the resulting fold change response curve. The maximum efficacy (Emax) was reported as the percentage activation calculated at the top concentration of compound used in the titration applied. If a full curve was unattainable preventing a correct curve fit, the Emax value was extrapolated using existing curve data. All percentage activation data were normalised to the DMF and vehicle controls, meaning the Emax represents the percentage […] achieved by a compound at a particular concentration relative to that achieved by DMF (set as the ‘High’ control and therefore representative of 100% activation).

[1] = tested on: IL-1β cytokine output from THP-1s; experiment: THP-1 AlphaLISA IL-1β cytokine assay; type: cell-based, human; settings: for IC50: Homo sapiens, read-out: IL-1β (IC50)
Method in brief: (§1)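 Percent inhibition, normalised to plus- and minus-LPS controls, was plotted against concentration to derive IC50. Differentiated THP-1 cells received compound 30 min ahead of LPS (24 h) and a 1 h nigericin pulse; AlphaLISA quantified supernatant cytokine.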

[2] = tested on: IL-6 cytokine output from THP-1s; experiment: THP-1 AlphaLISA IL-6 cytokine assay; type: cell-based, human; settings: for IC50: Homo sapiens
Method in brief: as §1

NRF2 = NRF2 +/-GSH activation assay (DiscoverX PathHunter NRF2 translocation kit, U2OS cells); type: cell-based; settings: Homo sapiens
Method in brief: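 Percent activation, normalised to dimethyl fumarate (high) and vehicle (low) controls, was fitted for EC50 after 6 hours treatment of U2OS PathHunter cells. In the +GSH arm compounds were first pre-incubated 30 minutes in 6 mM working GSH; NRF2 translocation read by chemiluminescent complementation.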

[3] = Mouse pharmacokinetic study, oral administration; type: in vivo; settings: mouse plasma, Example 112 dosed orally at 100 mg/kg (Intermediate 8 = metabolite)
Description: Pharmacokinetic studies were carried out in 6-8-week-old male C57BL/6 mice having free access to food and water. Intravenous dosing was conducted at 10 mg/kg (5 mL/kg; vehicle: 10% DMSO-90% (25% HP-13-CD in water)) via tail vein injection, with sampling at 3 min, 8 min, 15 min, 30 min, 1, 2, 4, 6 and 8 hours, i.e., 9 time points in total (N=3/time point), using semi-serial bleeding for plasma. Oral compound administration, via gavage, was carried out at 100 mg/kg (10 mL/kg; vehicle: 5% DMSO-95% (0.5% HPMC+0.1% Tween 80 in water)), with sampling at 5 min, 15 min, 30 min, 1, 2, 4, 6, 8 and 24 hours, i.e., 9 time points in total (N=3/time point), using semi-serial bleeding for plasma.
For both intravenous and oral routes, the mice were restrained manually at the designated time points, with ca. 110 μL of blood being taken into K2EDTA tubes via the facial vein. Blood samples were put on ice and centrifuged to obtain plasma samples from which the concentration at each time point was measured by LC-MS/MS.

[4] = THP-1, PMA-differentiated THP-1 cells, LPS 24 hr then Nigericin 1 hour
[5] = PMA-differentiated THP-1 cells, LPS 24 hr then Nigericin 1 hour
[6] = U2OS, normalised to dimethyl fumarate 'High' control, GSH condition not stated in Table 5, read-out: NRF2 activation Emax
[7] = U2OS PathHunter cells, 6 hours, GSH condition not stated in Table 5, read-out: NRF2 activation EC50
[8] = Table 10, assay of Biological Example 1 (THP-1)

| Compound | Emax (NQO1) [%] | EC50 (NQO1) [µM] | IC50 [1, 4] [µM] | IC50 [2, 5] [µM] | Emax (NRF2; [6]) [%] | EC50 (NRF2; [7]) [µM] | other results |
| --- | --- | --- | --- | --- | --- | --- | --- |
| C=C(CC(=O)OCCCC)C(=O)OCCC#N [Example 8, 1-(2-cyanoethyl) 4-butyl 2-methylenesuccinate] | 152 | 35.4 |  |  |  |  |  |
| C=C(CC(=O)OCCCCCCCC)C(=O)OCCOC(F)(F)F [Example 13, 4-octyl 1-(2-(trifluoromethoxy)ethyl) 2-methylenesuccinate] | 45 | 2.8 |  |  |  |  |  |
| C=C(CC(=O)OCCCCCCCC)C(=O)OCCCS(C)(=O)=O [Example 18, 1-(3-(methylsulfonyl)propyl) 4-octyl 2-methylenesuccinate] | 67 | 5.4 |  |  |  |  |  |
| C=C(CC(=O)OCCCC)C(=O)OC1COC1 [Example 37, 4-butyl 1-(oxetan-3-yl) 2-methylenesuccinate] | 105 | 21 |  |  |  |  |  |
| C=C(CC(=O)OC1CCCCCCC1)C(=O)OC [Example 41, 4-cyclooctyl 1-methyl 2-methylenesuccinate] | 129 | 38.1 |  |  |  |  |  |
| C=C(CC(=O)OCCCCCCCC)C(=O)OC [Example 42, 1-methyl 4-octyl 2-methylenesuccinate] | 66 | 24.3 |  |  |  |  |  |
| C=C(CC(=O)OC1CCC1)C(=O)OC1CCC1 [Example 43, dicyclobutyl 2-methylenesuccinate] | 150 | 170 |  |  |  |  |  |
| C=C(CC(=O)OC1CCCCCCC1)C(=O)OC1CS(=O)(=O)C1 [Example 54, 4-cyclooctyl 1-(1,1-dioxidothietan-3-yl) 2-methylenesuccinate] |  |  | 3.9 | 1.5 | 105 | 2.8 |  |
| C=C(CC(=O)OC1CCCCCCC1)C(=O)OC1CCN(S(C)(=O)=O)CC1 [Example 69, 4-cyclooctyl 1-(1-(methylsulfonyl)piperidin-4-yl) 2-methylenesuccinate] |  |  | 1.7 | 2.2 | 111 | 14.7 |  |
| C=C(CC(=O)OCc1ccc(F)cc1)C(=O)OCCC(=O)O [Example 81, 3-((4-((4-fluorobenzyl)oxy)-2-methylene-4-oxobutanoyl)oxy)propanoic acid] |  |  | 100 | 52.1 | 110 | 24.9 |  |
| C=C(CC(=O)OCCCCCC)C(=O)OCCC(=O)O [Example 85, 3-((4-(hexyloxy)-2-methylene-4-oxobutanoyl)oxy)propanoic acid] |  |  | 22.6 | 18.6 | 163 | 25 |  |
| C=C(CC(=O)OCC(C)(C)C)C(=O)OCC(=O)O [Example 92, 2-((2-methylene-4-(neopentyloxy)-4-oxobutanoyl)oxy)acetic acid] |  |  | 75.3 | 21.2 | 109 | 37.8 |  |
| C=C(CC(=O)OCc1ccc(F)cc1)C(=O)OCC(=O)O [Example 93, 2-((4-((4-fluorobenzyl)oxy)-2-methylene-4-oxobutanoyl)oxy)acetic acid] |  |  | 73.8 | 28.1 | 118 | 36 |  |
| C=C(CC(=O)OCCCCCCCC)C(=O)OCC(=O)N(C)CC(=O)O [Example 98, 2-(N-methyl-2-((2-methylene-4-(octyloxy)-4-oxobutanoyl)oxy)acetamido)acetic acid] |  |  | 2.1 | 4.3 | 193 | 14.7 |  |
| C=C(CC(=O)OCCCCCCCC)C(=O)OCC(=O)N1CCC[C@H]1C(=O)O [Example 99, (2-((2-methylene-4-(octyloxy)-4-oxobutanoyl)oxy)acetyl)-L-proline] |  |  | 1.9 | 2.5 | 227 | 37.6 |  |
| C=C(CC(=O)OCCCCCCCC)C(=O)OC(C)C(=O)N(C)CC(=O)O (stereo not shown) [Example 100, N-methyl-N-(2-((2-methylene-4-(octyloxy)-4-oxobutanoyl)oxy)propanoyl)glycine] |  |  | 11 | 5.1 | 195 | 48.7 |  |
| C=C(CC(=O)OCCCCCCCC)C(=O)OC(C)C(=O)N1CCC[C@H]1C(=O)O (stereo partly drawn) [Example 101, (2-((2-methylene-4-(octyloxy)-4-oxobutanoyl)oxy)propanoyl)-L-proline] |  |  | 15.2 | 4.7 | 186 | 37.9 |  |
| C=C(CC(=O)OCCCCCCCC)C(=O)OC(C)C(=O)NCC(=O)O (stereo not shown) [Example 102, (2-((2-methylene-4-(octyloxy)-4-oxobutanoyl)oxy)propanoyl)glycine] |  |  | 1.5 | 1.1 | 191 | 6.5 |  |
| C=C(CC(=O)O[C@H](C)CCCCCC)C(=O)O [Intermediate 8, (R)-2-methylene-4-(octan-2-yloxy)-4-oxobutanoic acid] |  |  |  |  |  |  | IC50 ([1]; THP-1, Table 10, assay of Biological Example 1 (THP-1)): 56.7 µM; IL-1β (IC50) [1, 8]: improved cytokine-lowering potencies compared to dimethyl itaconate; IC50 [2, 8]: 23.7 µM; IL-6 (IC50) [2, 8]: improved cytokine-lowering potencies compared to dimethyl itaconate; EC50 (NRF2; U2OS, Table 10, assay of Biological Example 5 (NRF2), read-out: EC50): 20.4 µM; Emax (NRF2; U2OS, Table 10, assay of Biological Example 5 (NRF2), read-out: Emax): 165%; concentration at 0.083 h ([3]; male, C57BL/6, po, time 0.083 h, read-out: Example 112 and Intermediate 8 concentrations following oral administration): 18500 ng/mL; concentration at 0.25 h ([3]; male, C57BL/6, po, time 0.25 h, read-out: Example 112 and Intermediate 8 concentrations following oral administration): 19800 ng/mL; concentration at 0.5 h ([3]; male, C57BL/6, po, time 0.5 h, read-out: Example 112 and Intermediate 8 concentrations following oral administration): 12800 ng/mL; concentration at 1 h ([3]; male, C57BL/6, po, time 1 h, read-out: Example 112 and Intermediate 8 concentrations following oral administration): 4710 ng/mL; concentration at 2 h ([3]; male, C57BL/6, po, time 2 h, read-out: Example 112 and Intermediate 8 concentrations following oral administration): 2160 ng/mL; concentration at 4 h ([3]; male, C57BL/6, po, time 4 h, read-out: Example 112 and Intermediate 8 concentrations following oral administration): 719 ng/mL; concentration at 6 h ([3]; male, C57BL/6, po, time 6 h, read-out: Example 112 and Intermediate 8 concentrations following oral administration): 614 ng/mL; concentration at 8 h ([3]; male, C57BL/6, po, time 8 h, read-out: Example 112 and Intermediate 8 concentrations following oral administration): 132 ng/mL; Example 112 and Intermediate 8 concentrations following oral administration ([3]; time 24 h): BQL |
